Laboratory results as given in US7647217B2, “Structure of the farnesoid X receptor ligand binding domain and methods of use therefor” (The Salk Institute for Biological Studies, priority 2002, dated 2010).

Target: T1, mouse FXR (Mus musculus, UniProt Q60641)
T1 construct: expressed in transfected cells; host or cells: CV-1 (monkey)
T1 sequence (Q60641 1-488): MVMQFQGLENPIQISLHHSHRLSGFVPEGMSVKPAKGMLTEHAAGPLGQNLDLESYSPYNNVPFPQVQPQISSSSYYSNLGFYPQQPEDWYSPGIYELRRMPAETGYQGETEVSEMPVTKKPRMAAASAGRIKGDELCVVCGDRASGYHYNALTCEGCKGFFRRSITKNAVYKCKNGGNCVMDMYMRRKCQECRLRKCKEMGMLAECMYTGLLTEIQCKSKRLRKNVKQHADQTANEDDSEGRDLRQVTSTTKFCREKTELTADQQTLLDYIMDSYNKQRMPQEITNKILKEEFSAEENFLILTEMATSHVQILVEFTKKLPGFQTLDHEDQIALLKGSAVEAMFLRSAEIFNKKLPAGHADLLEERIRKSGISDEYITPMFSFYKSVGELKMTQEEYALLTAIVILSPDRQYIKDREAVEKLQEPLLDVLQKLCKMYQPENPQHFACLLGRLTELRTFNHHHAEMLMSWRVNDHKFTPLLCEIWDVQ
T1 sequence (P19793 1-462 partner): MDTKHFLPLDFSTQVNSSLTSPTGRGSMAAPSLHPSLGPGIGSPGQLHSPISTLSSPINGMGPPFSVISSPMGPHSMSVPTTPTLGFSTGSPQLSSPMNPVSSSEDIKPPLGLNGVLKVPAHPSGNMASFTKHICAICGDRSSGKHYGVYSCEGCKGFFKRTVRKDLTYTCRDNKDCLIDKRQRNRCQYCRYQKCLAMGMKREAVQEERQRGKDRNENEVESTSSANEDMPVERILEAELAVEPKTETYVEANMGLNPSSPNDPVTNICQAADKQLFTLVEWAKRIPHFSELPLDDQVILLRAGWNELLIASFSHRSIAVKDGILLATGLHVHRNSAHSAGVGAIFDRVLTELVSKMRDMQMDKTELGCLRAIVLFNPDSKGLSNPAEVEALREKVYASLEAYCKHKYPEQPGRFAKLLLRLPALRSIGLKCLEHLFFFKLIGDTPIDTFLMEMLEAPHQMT
Assay: CV-1 reporter gene assay, mFXR/hRXR with TK minimal, TK-ECRE*6 or TK-ER8*2 luciferase reporter
Assay type: cell-based
Details: for activation of ECRE FXRE reporter: CV-1, TK-ECRE*6; for activation of ER-8 FXRE reporter: CV-1, TK-ER8*2; for concentration at which maximal activity is achieved / activity on FXRE reporters: ECRE and ER-8 reporters
Method: FIGS. 2A-2F collectively show the results of ligand activation of CV-1 cells co-transfected with FXR constructs pCMX-mFXR and pCMX-hRXR and a luciferase reporter gene containing various promoters as follows: FIG. 2A with a minimal TK promoter, FIG. 2B with a TK-ECRE*6 promoter, FIG. 2C with a TK-ER8*2 promoter, FIG. 2D with HIBABP promoter, FIG. 2E with a hPLTP promoter, or FIG. 2 with a FhMRP-2 promoter.
For transfection of these constructs, monkey CV-1 HEPG2 and HEK293T cells were grown in DMEM supplemented with 10% FBS, 50 U/ml penicillin G, and 50 μg/ml streptomycin sulfate at 37° C. in 7% CO2. CV-1 cells (60%-70% confluence, 48-well plate) were cotransfected with 16.6 ng of the appropriate expression vector, 100 ng of reporter plasmid, and 100 ng of pCMX-LacZ in 200 μl of DMEM containing 10% FBS by the N-[1-(2,3-dioleoyloxy)propyl]-N,N,N-trimethylammonium methylsulfate (DOTAP)-mediated procedure. After 24 hr, the medium was replaced, and cells were harvested and assayed for luciferase activity 36-48 hr after transfection. The luciferase activity was normalized to the level of β-galactosidase activity. Each transfection was performed in triplicate and repeated at least three times.
The ability of these compounds to activate the receptor in a number of different cell-based reporter gene assays was then determined. […] CV-1 cells were transiently transfected with an expression plasmid for mouse FXR and human RXR with a thymidine kinase (minimal promoter reporter vector containing either no copies or six copies of the ecdysone response element (ECRE), a well-characterized FXR response element (FXRE). In addition, two copies of the recently identified FXRE everted repeat separated by 8 nucleotides (ER-8) was also studied (see, for example, Laffitte et al. (2000). Identification of the DNA binding specificity and potential target genes for the farnesoid X-activated receptor. J Biol. Chem. 275(14), 10638-47; Kast et al. (2002). Regulation of multidrug resistance-associated protein 2 (ABCC2) by the nuclear receptors pregnane X receptor, farnesoid X-activated receptor, and constitutive androstane receptor. J Biol Chem. 277(4), 2908-15).
Similar results were found in a variety of different cell types including liver cells (HEPG2) and kidney cells (HEK 293).

Structure (SMILES) | activation of ECRE FXRE reporter [fold] | activation of ER-8 FXRE reporter [fold] | concentration at which maximal activity is achieved [µM] | activity on minimal TK promoter (reporter without FXRE) | activity on FXRE reporters
COC(=O)/C=C/c1cccc(N(Cc2ccc(-c3ccc(N(C)C)cc3)cc2)C(=O)C2CCCCC2)c1 [fexaramine] | 100 | 4 | 1 |  | 
CC(C)c1onc(-c2c(Cl)cccc2Cl)c1COc1ccc(/C=C/c2cccc(C(=O)O)c2)c(Cl)c1 [GW4064, reference compound] | 100 | 4 | 1 | less than 2 fold | 
COC(=O)/C=C/c1cccc(N(Cc2ccc(-c3ccccc3OC)cc2)C(=O)C(C)C)c1 [SRI-1] |  |  |  |  | little or no activity
COC(=O)/C=C/c1cccc(N(Cc2ccc(-c3ccc4c(c3)OCO4)cc2)C(=O)C2CCCCC2)c1 [fexarine] | 100 | 4 | 1 |  | 
COC(=O)/C=C/c1cccc(N(Cc2ccc(-c3ccc(C(C)(C)C)cc3)cc2)C(=O)C(C)C)c1 [SRI-2] |  |  |  |  | little or no activity
COC(=O)/C=C/c1cccc(N(Cc2ccc(/C=C/c3ccccc3)cc2)C(=O)C2CCCCC2)c1 [fexarene] | 100 | 4 | 1 |  | 
